Columns and labels:
MMP-9 = assay: Substrate phage display with NGS: relative probability (RP) of P3-P1' tetramer clusters; type: biochemical, human; settings: for corresponding MMP9 relative probability (RP): MMP2 tetramers from unique substrates, RP of same tetramer for MMP9; for normalized RP - MMP9: normalized RP of matching tetramer; for MMP9 relative probability (RP): MMP9 tetramers from unique substrates, unrounded values
MMP-2 = assay: as above; type: biochemical, human; settings: for MMP2 relative probability (RP): MMP2 tetramers from unique substrates, unrounded values; for relative probability (RP) of matching tetramer: P3-P1' tetramer matching the MS detected MMP2 cleavage sequence, RP_above_4.5; for normalized RP - MMP2: normalized RP of matching tetramer; for corresponding MMP2 relative probability (RP): MMP9 tetramers from unique substrates, RP of same tetramer for MMP2
[1] = RP according to MMP9, P3-P1' tetramer of unique physiologic MMP9 substrates from MEROPS
[2] = RP of the P3-P1' tetramer, MMP9 substrate phage display/NGS, tetramers of physiologic MEROPS substrates common to MMP2 and MMP9
[3] = RP according to MMP2, P3-P1' tetramer of unique physiologic MMP2 substrates from MEROPS
[4] = RP of the P3-P1' tetramer, MMP2 substrate phage display/NGS, tetramers of physiologic MEROPS substrates common to MMP2 and MMP9
[5] = MMP9, RP of the P3-P1' tetramer contained in the hexamer substrate (substrate phage display, NGS)
[6] = RP of the P3-P1' tetramer cluster contained in the hexamer, 200 nM MMP-2, 2 h, 37°C, two rounds of selection
[7] = MMP9, RP of matching P3-P1' tetramer, common set of MMP2-9 selectome
[8] = MMP9, RP of the P3-P1' tetramer matching the MS detected cleavage, RP above 4.7, substrate phage display with NGS
[9] = RP of matching tetramer, common MMP2-9 selectome, RP above KL threshold
[10] = MMP2, RP of matching P3-P1' tetramer, common set of MMP2-9 selectome, RP above KL threshold
[11] = RP of matching tetramer, common MMP2-9 selectome
[12] = RP of matching tetramer, unique part of MMP2 selectome
[13] = RP of matching tetramer, unique part of MMP2 selectome, RP above KL threshold

## LSKI
MMP-9
  corresponding MMP9 relative probability (RP): 0.06898
MMP-9; [1]
  Relative probability (RP) rank: 65498
  relative probability (RP): 0.07
MMP-9; [2]
  relative probability (RP) (acc.to MMP9): 0.07
MMP-2
  MMP2 relative probability (RP): 4.524
MMP-2; [3]
  Relative probability (RP) rank: 7909
  relative probability (RP): 4.52
MMP-2; [4]
  relative probability (RP) (acc.to MMP2): 4.52

## LSPFGQ
MMP-9; [5]
  relative probability (RP): 36.0266
MMP-2; [6]
  relative probability (RP): 16.8686

## LSWL
MMP-9; [7]
  relative probability (RP) (acc.to MMP9): 20.21
MMP-9; [8]
  relative probability (RP): 20.21
MMP-9; [9]
  relative probability (RP) (acc.to MMP9): 20.21
MMP-2; [10]
  relative probability (RP) (acc.to MMP2): 25.56
MMP-2
  relative probability (RP) of matching tetramer: 25.56
MMP-2; [11]
  relative probability (RP) (acc.to MMP2): 25.56

## MAGM
MMP-9
  corresponding MMP9 relative probability (RP): 0.06237
MMP-2
  MMP2 relative probability (RP): 21.4504
MMP-2; [3]
  Relative probability (RP) rank: 1484
  relative probability (RP): 21.45

## MASQ
MMP-9
  corresponding MMP9 relative probability (RP): 0
MMP-2
  MMP2 relative probability (RP): 16.7049
MMP-2; [3]
  Relative probability (RP) rank: 2583
  relative probability (RP): 16.7

## MGPLGQ
MMP-9; [5]
  relative probability (RP): 44.3652
MMP-2; [6]
  relative probability (RP): 28.8115

## MGSL
MMP-9
  corresponding MMP9 relative probability (RP): 3.398
MMP-2
  MMP2 relative probability (RP): 28.8961
MMP-2; [3]
  Relative probability (RP) rank: 452
  relative probability (RP): 28.9

## MNML
MMP-9; [12]
  relative probability (RP) (acc.to MMP9): 0.4
MMP-9; unique part of MMP2 selectome
  normalized RP - MMP9: 0.007637
MMP-2
  relative probability (RP) of matching tetramer: 8.39
MMP-2; [13]
  relative probability (RP) (acc.to MMP2): 8.39
MMP-2; unique part of MMP2 selectome
  normalized RP - MMP2: 0.2297

## MRPVGH
MMP-9; [5]
  relative probability (RP): 20.8057
MMP-2; [6]
  relative probability (RP): 23.4937

## MSAF
MMP-9
  corresponding MMP9 relative probability (RP): 1.271
MMP-2
  MMP2 relative probability (RP): 20.9521
MMP-2; [3]
  Relative probability (RP) rank: 1585
  relative probability (RP): 20.95

## MSPANI
MMP-9; [5]
  relative probability (RP): 46.3162
MMP-2; [6]
  relative probability (RP): 33.5547

## NAQL
MMP-9; [12]
  relative probability (RP) (acc.to MMP9): 0
MMP-9; unique part of MMP2 selectome
  normalized RP - MMP9: 0
MMP-2
  relative probability (RP) of matching tetramer: 9.69
MMP-2; [13]
  relative probability (RP) (acc.to MMP2): 9.69
MMP-2; unique part of MMP2 selectome
  normalized RP - MMP2: 0.2653

## NEGL
MMP-9; [2]
  relative probability (RP) (acc.to MMP9): 0
MMP-2; [4]
  relative probability (RP) (acc.to MMP2): 0.16

## NPMPIR
MMP-9; [5]
  relative probability (RP): 45.0822
MMP-2; [6]
  relative probability (RP): 26.0717

## NPQNIR
MMP-9; [5]
  relative probability (RP): 44.0295
MMP-2; [6]
  relative probability (RP): 27.128

## NRGF
MMP-9; [12]
  relative probability (RP) (acc.to MMP9): 0
MMP-9; unique part of MMP2 selectome
  normalized RP - MMP9: 0
MMP-2
  relative probability (RP) of matching tetramer: 6.81
MMP-2; [13]
  relative probability (RP) (acc.to MMP2): 6.81
MMP-2; unique part of MMP2 selectome
  normalized RP - MMP2: 0.1865

## NRPNNL
MMP-9; [5]
  relative probability (RP): 38.7188
MMP-2; [6]
  relative probability (RP): 27.0562

## NVARPM
MMP-9; [5]
  relative probability (RP): 34.8794
MMP-2; [6]
  relative probability (RP): 21.8664

## PAAV
MMP-9; [8]
  relative probability (RP): 36.05
MMP-9; [9]
  relative probability (RP) (acc.to MMP9): 36.05
MMP-2; [11]
  relative probability (RP) (acc.to MMP2): 30.72

## PADF
MMP-9; [7]
  relative probability (RP) (acc.to MMP9): 12.85
MMP-2; [10]
  relative probability (RP) (acc.to MMP2): 20.44
MMP-2
  relative probability (RP) of matching tetramer: 20.44

## PAGE
MMP-9; [2]
  relative probability (RP) (acc.to MMP9): 0.06
MMP-2; [4]
  relative probability (RP) (acc.to MMP2): 0.05

## PAGVKA
MMP-9; [5]
  relative probability (RP): 31.0803
MMP-2; [6]
  relative probability (RP): 28.6381

## PANA
MMP-9; [12]
  relative probability (RP) (acc.to MMP9): 2.68
MMP-9; unique part of MMP2 selectome
  normalized RP - MMP9: 0.05116
MMP-2
  relative probability (RP) of matching tetramer: 17.73
MMP-2; [13]
  relative probability (RP) (acc.to MMP2): 17.73
MMP-2; unique part of MMP2 selectome
  normalized RP - MMP2: 0.4855

## PAPNSL
MMP-9; [5]
  relative probability (RP): 34.9686
MMP-2; [6]
  relative probability (RP): 24.6338

## PAQLHV
MMP-9; [5]
  relative probability (RP): 43.1805
MMP-2; [6]
  relative probability (RP): 32.8467

## PAVM
MMP-9
  corresponding MMP9 relative probability (RP): 4.1214
MMP-2
  MMP2 relative probability (RP): 17.6491
MMP-2; [3]
  Relative probability (RP) rank: 2339
  relative probability (RP): 17.65

## PDAL
MMP-9; [8]
  relative probability (RP): 29.54
MMP-9; [9]
  relative probability (RP) (acc.to MMP9): 29.54
MMP-2; [11]
  relative probability (RP) (acc.to MMP2): 7.73

## PDGL
MMP-9; [8]
  relative probability (RP): 23.13
MMP-9; [9]
  relative probability (RP) (acc.to MMP9): 23.13
MMP-2; [11]
  relative probability (RP) (acc.to MMP2): 6.23

## PEAI
MMP-9; [2]
  relative probability (RP) (acc.to MMP9): 36.36
MMP-2; [4]
  relative probability (RP) (acc.to MMP2): 22.52

## PEAQ
MMP-9
  MMP9 relative probability (RP): 2.403
MMP-2
  corresponding MMP2 relative probability (RP): 6.464

## PEGL
MMP-9; [2]
  relative probability (RP) (acc.to MMP9): 39.41
MMP-2; [4]
  relative probability (RP) (acc.to MMP2): 29.5

## PEGLQG
MMP-9; [5]
  relative probability (RP): 39.4116
MMP-2; [6]
  relative probability (RP): 29.5031

## PENF
MMP-9; [2]
  relative probability (RP) (acc.to MMP9): 20.05
MMP-9; tetramer annotation of MMP-9 cleavage sites in physiologic substrates from MEROPS
  relative probability (RP): 20.05
MMP-2; [4]
  relative probability (RP) (acc.to MMP2): 16

## PEPAAL
MMP-9; [5]
  relative probability (RP): 47.6262
MMP-2; [6]
  relative probability (RP): 35.8015

## PEQL
MMP-9; [7]
  relative probability (RP) (acc.to MMP9): 23.26
MMP-9; [8]
  relative probability (RP): 23.26
MMP-9; [9]
  relative probability (RP) (acc.to MMP9): 23.26
MMP-2; [10]
  relative probability (RP) (acc.to MMP2): 12.46
MMP-2
  relative probability (RP) of matching tetramer: 12.46
MMP-2; [11]
  relative probability (RP) (acc.to MMP2): 12.46

## PESW
MMP-9; [12]
  relative probability (RP) (acc.to MMP9): 1.77
MMP-9; unique part of MMP2 selectome
  normalized RP - MMP9: 0.03379
MMP-2
  relative probability (RP) of matching tetramer: 4.73
MMP-2; [13]
  relative probability (RP) (acc.to MMP2): 4.73
MMP-2; unique part of MMP2 selectome
  normalized RP - MMP2: 0.1295

## PFGV
MMP-9; [8]
  relative probability (RP): 38.95
MMP-9; [9]
  relative probability (RP) (acc.to MMP9): 38.95
MMP-2; [11]
  relative probability (RP) (acc.to MMP2): 6.82

## PFLI
MMP-9
  MMP9 relative probability (RP): 0.05937
MMP-2
  corresponding MMP2 relative probability (RP): 22.6532

## PGAY
MMP-9; [2]
  relative probability (RP) (acc.to MMP9): 33.81
MMP-2; [4]
  relative probability (RP) (acc.to MMP2): 27.42

## PGEI
MMP-9; [7]
  relative probability (RP) (acc.to MMP9): 12.83
MMP-9; [8]
  relative probability (RP): 12.83
MMP-9; [9]
  relative probability (RP) (acc.to MMP9): 12.83
MMP-2; [10]
  relative probability (RP) (acc.to MMP2): 14.72
MMP-2
  relative probability (RP) of matching tetramer: 14.72
MMP-2; [11]
  relative probability (RP) (acc.to MMP2): 14.72

## PGGV
MMP-9
  MMP9 relative probability (RP): 2.434
MMP-2
  corresponding MMP2 relative probability (RP): 10.6032

## PGMI
MMP-9; [7]
  relative probability (RP) (acc.to MMP9): 13.36
MMP-9; [8]
  relative probability (RP): 13.36
MMP-9; [9]
  relative probability (RP) (acc.to MMP9): 13.36
MMP-2; [10]
  relative probability (RP) (acc.to MMP2): 17.65
MMP-2
  relative probability (RP) of matching tetramer: 17.65
MMP-2; [11]
  relative probability (RP) (acc.to MMP2): 17.65

## PGNR
MMP-9; [2]
  relative probability (RP) (acc.to MMP9): 0.05
MMP-2; [4]
  relative probability (RP) (acc.to MMP2): 0.12

## PGPAGQ
MMP-9; [5]
  relative probability (RP): 28.6679
MMP-2; [6]
  relative probability (RP): 28.0249

## PGPIGI
MMP-9; [5]
  relative probability (RP): 46.0584
MMP-2; [6]
  relative probability (RP): 31.281

## PGPIGW
MMP-9; [5]
  relative probability (RP): 36.9425
MMP-2; [6]
  relative probability (RP): 31.1565

## PHGLAT
MMP-9; [5]
  relative probability (RP): 46.2798
MMP-2; [6]
  relative probability (RP): 32.9009

## PHGYKG
MMP-9; [5]
  relative probability (RP): 44.1642
MMP-2; [6]
  relative probability (RP): 24.9359

## PHNILS
MMP-9; [5]
  relative probability (RP): 42.0557
MMP-2; [6]
  relative probability (RP): 24.3767

## PHPRLL
MMP-9; [5]
  relative probability (RP): 38.6219
MMP-2; [6]
  relative probability (RP): 23.2612

## PIQLQS
MMP-9; [5]
  relative probability (RP): 35.2784
MMP-2; [6]
  relative probability (RP): 19.2979

Reference: paper PMC7932537, “Quantitative profiling of protease specificity” (PLoS Computational Biology, 2021)
